Data published in patent US20230142338A1, “THIOPHENYL DERIVATIVES USEFUL FOR MODULATING NUCLEIC ACID SPLICING” (REMIX THERAPEUTICS INC., priority 2020, published 2023).

Legend:
Assay type in all cases: cell-based
SMN2 CJ mRNA = test: Gene panel canonical junction qPCR assay: SMN2; settings: Table 3, concentration having 50% response in CJ decrease, read-out: SMN2 IC50 (decrease in CJ mRNA levels)
Experimental: (§1) Compounds described herein were used to modulate RNA transcript abundance in cells. The expression of a target mRNA was measured by detecting the formation of an exon-exon junction in the canonical transcript (CJ). A compound mediated exon-inclusion event was detected by observing an increase in formation of a new junction with an alternative exon (AJ). Real-time qPCR assays were used to detect these splicing switches and interrogate the potency of various compounds towards different target genes. A high-throughput real time quantitative PCR (RT-qPCR) assay was developed to measure these two isoforms of the mRNA (CJ and AJ) for an exemplary gene, HTT, together with a control housekeeping gene, GAPDH or GUSB or PPIA, used for normalization. Briefly, the A673 or K562 cell line was treated with various compounds described herein (e.g., compounds of Formula (I)). After treatment, the levels of the HTT mRNA targets were determined from each sample of cell lysate by cDNA synthesis followed by qPCR.
(§2) The A673 cell line was cultured in DMEM with 10% FBS. Cells were diluted with full growth media and plated in a 96-well plate (15,000 cells in 100 ul media per well). The plate was incubated at 37° C. with 5% CO2 for 24 hours to allow cells to adhere. An 11-point 3-fold serial dilution of the compounds was made in DMSO then diluted in media in an intermediate plate. Compounds were transferred from the intermediate plate to the cell plate with the top dose at a final concentration of 10 uM in the well. Final DMSO concentration was kept at or below 0.25%. The cell plate was returned to the incubator at 37° C. with 5% CO2 for an additional 24 hours.
(§3) The K562 cell line was cultured in IMDM with 10% FBS. For K562, cells were diluted with full growth media and plated in either a 96-well plate (50,000 cells in 50 uL media per well) or a 384-well plate (8,000-40,000 cells in 45 uL media per well). An 11-point 3-fold serial dilution of the compounds were made in DMSO then diluted in media in an intermediate plate. Compound was transferred from the intermediate plate to the cell plate with the top dose at a final concentration of 10 uM in the well. Final DMSO concentration was kept at or below 0.25%. Final volume was 100 uL for 96-well plate and 50 uL for 384-well plate. The cell plate was then placed in an incubator at 37° C. with 5% CO2 for 24 hours.
(§4) The cells were then gently washed with 50 uL-100 uL cold PBS before proceeding to addition of lysis buffer. 30 uL-50 uL of room temperature lysis buffer with DNAse I (and optionally RNAsin) was added to each well. Cells were shaken/mixed thoroughly at room temperature for 5-10 minutes for lysis to take place and then 3 uL-5 uL of room temperature stop solution was added and wells were shaken/mixed again. After 2-5 minutes, the cell lysate plate was transferred to ice for RT-qPCR reaction setup. The lysates could also be frozen at −80° C. for later use.
(§5) In some cases, a direct lysis buffer was used. An appropriate volume of 3× lysis buffer (10 mM Tris, 150 mM NaCl, 1.5%-2.5% Igepal and 0.1-1 U/uL RNAsin, pH 7.4) was directly added to either K562 or A673 cells in media and mixed by pipetting 3 times. The plates were then incubated at room temperature with shaking/rocking for 20-50 minutes to allow for lysis to take place. After this time, the cell lysate plate was transferred to ice to set up for the RT-qPCR reactions. The lysates could also be frozen at −80° C. for later use.
(§6) To set up 10 uL RT-qPCR reactions, cell lysates were transferred to 384-well qPCR plates containing the master mix according to the table below. The plates were sealed, gently vortexed, and spun down before the run. The volumes were adjusted accordingly in some instances where the reaction was carried in 20 uL. The table below summarizes the components of the RT-qPCR reactions:
(§7) The RT-qPCR reaction was performed using a QuantStudio (ThermoFisher) under the following fast cycling conditions. […]

HTT AJ mRNA = test: Splicing assay (RT-qPCR): increase in HTT alternative junction (AJ) mRNA; settings: A673 or K562 cells, 24 hours treatment; concentration having 50% response in AJ mRNA increase
Experimental: as §1, §2, §3, §4, §5, §6, §7

HTT CJ mRNA [1] = test: Splicing assay (RT-qPCR): decrease in HTT canonical junction (CJ) mRNA; settings: A673 or K562 cells, 24 hours treatment; concentration having 50% response in CJ mRNA decrease
Experimental: as §1, §2, §3, §4, §5, §6, §7

HTT CJ mRNA [2] = test: Gene panel canonical junction qPCR assay: HTT; settings: Table 3, concentration having 50% response in CJ decrease, read-out: HTT IC50 (decrease in CJ mRNA levels)
Experimental: as §1, §2, §3, §4, §5, §6, §7

Target C CJ mRNA = test: Gene panel canonical junction qPCR assay: Target C; settings: Table 3, concentration having 50% response in CJ decrease, read-out: Target C IC50 (decrease in CJ mRNA levels)
Experimental: as §1, §2, §3, §4, §5, §6, §7

SMILES	IC50 (SMN2 CJ mRNA) [nM]	IC50 (HTT CJ mRNA [2]) [nM]	IC50 (Target C CJ mRNA) [nM]	AC50 (HTT AJ mRNA) [µM]	AC50 (HTT CJ mRNA [1]) [µM]
Cc1cn2cc(NC(=O)c3sc(N4CCN(C)CC4)cc3F)cc(F)c2n1 [Compound 127, 3-fluoro-N-[8-fluoro-2-methylimidazo [1,2-a]pyridin-6-yl]-5-(4-methylpiperazin-1-yl) thiophene-2-carboxamide]	100 to 1000	> 10	< 100	> 10	> 10
Cc1cn2cc(NC(=O)c3sc(N4CCN(C)C(C)C4)cc3F)cc(F)c2n1 (stereo not shown) [Compound 129, 5-(3,4-dimethylpiperazin-1-yl)-3-fluoro-N-[8-fluoro-2-methylimidazo[1,2-a]pyridin-6-yl]thiophene-2-carboxamide]	1000 to 10000	> 10	> 10	> 10	> 10
Cc1cn2cc(NC(=O)c3sc(N4CCNC(C)(C)C4)cc3F)cc(F)c2n1 [Compound 131, 5-(3,3-dimethylpiperazin-1-yl)-3-fluoro-N-[8-fluoro-2-methylimidazo[1,2-a]pyridin-6-yl] thiophene-2-carboxamide]	100 to 1000	1000 to 10000	> 10	1 to 10	1 to 10
Cc1cn2cc(NC(=O)c3sc(N4CCNC5(CC5)C4)cc3F)cc(F)c2n1 [Compound 132, 5-[4,7-diazaspiro[2.5]octan-7-yl]-3-fluoro-N-[8-fluoro-2-methylimidazo[1,2-a]pyridin-6-yl]thiophene-2-carboxamide]	1000 to 10000	> 10	> 10	> 10	> 10
Cc1cn2cc(NC(=O)c3sc(N4CC(C)(C)NC(C)(C)C4)cc3F)cc(F)c2n1 [Compound 133, 3-fluoro-N-[8-fluoro-2-methylimidazo[1,2-a]pyridin-6-yl]-5-(3,3,5,5-tetramethylpiperazin-1-yl)thiophene-2-carboxamide]	1000 to 10000	> 10	> 10	> 10	> 10
Cc1cn2cc(NC(=O)c3sc(N4CC5(CNC5)C4)cc3F)cc(F)c2n1 [Compound 134, 5-[2,6-diazaspiro[3.3]heptan-2-yl]-3-fluoro-N-[8-fluoro-2-methylimidazo[1,2-a]pyridine-6-yl]thiophene-2-carboxamide]	100 to 1000	1000 to 10000	1000 to 10000	1 to 10	1 to 10
Cc1cn2cc(NC(=O)c3sc(N4C[C@H]5CC[C@@H](C4)N5)cc3F)cc(F)c2n1 [Compound 143, 5-[(1R,5S)-3,8-diazabicyclo[3.2.1]octan-3-yl]-3-fluoro-N-[8-fluoro-2-methylimidazo[1,2-a]pyridin-6-yl]thiophene-2-carboxamide]	1000 to 10000	> 10	1000 to 10000	> 10	> 10
Cc1cn2cc(NC(=O)c3sc(N(C)C4CC(C)(C)NC(C)(C)C4)cc3F)cc(F)c2n1 [Compound 149, 3-fluoro-N-[8-fluoro-2-methylimidazo[1,2-a]pyridin-6-yl]-5-[methyl(2,2,6,6-tetramethylpiperidin-4-yl)amino]thiophene-2-carboxamide]	100 to 1000	> 10	> 10	> 10	> 10

The next lines start with results.

IC50 (SMN2 CJ mRNA) [nM]	IC50 (HTT CJ mRNA [2]) [nM]	IC50 (Target C CJ mRNA) [nM]	SMILES	AC50 (HTT AJ mRNA) [µM]	AC50 (HTT CJ mRNA [1]) [µM]
100 to 1000	> 10	> 10	Cc1cn2cc(NC(=O)c3sc(N4CCC(N5CCCC5)C4)cc3F)cc(F)c2n1 (stereo not shown) [Compound 136, 5-[[1,3′-bipyrrolidin]-1′-yl]-3-fluoro-N-[8-fluoro-2-methylimidazo[1,2-a]pyridin-6-yl]thiophene-2-carboxamide]	> 10	> 10
> 10	> 10	100 to 1000	Cc1cn2cc(NC(=O)c3sc(N4CCC(NC(C)(C)C)C4)cc3F)cc(F)c2n1 (stereo not shown) [Compound 137, 5-[3-(tert-butylamino)pyrrolidin-1-yl]-3-fluoro-N-[8-fluoro-2-methylimidazo[1,2-a]pyridin-6-yl]thiophene-2-carboxamide]	> 10	> 10
100 to 1000	1000 to 10000	> 10	Cc1cn2cc(NC(=O)c3sc(N4CCC(N(C)C)C4)cc3F)cc(F)c2n1 (stereo not shown) [Compound 138, 5-[3-(dimethylamino)pyrrolidin-1-yl]-3-fluoro-N-[8-fluoro-2-methylimidazo[1,2-a]pyridin-6-yl]thiophene-2-carboxamide]	> 10	1 to 10
1000 to 10000	> 10	> 10	Cc1cn2cc(NC(=O)c3sc(N4CCN5CCCC5C4)cc3F)cc(F)c2n1 (stereo not shown) [Compound 139, 3-fluoro-N-[8-fluoro-2-methylimidazo[1,2-a]pyridin-6-yl]-5-[hexahydro-1H-pyrrolo[1,2-a]pyrazin-2-yl] thiophene-2-carboxamide]	> 10	> 10
1000 to 10000	> 10	> 10	Cc1cn2cc(NC(=O)c3sc(N4CCC(NC(C)(C)C)CC4)cc3F)cc(F)c2n1 [Compound 141, 5-[4-(tert-butylamino)piperidin-1-yl]-3-fluoro-N-[8-fluoro-2-methylimidazo[1,2-a]pyridin-6-yl]thiophene-2-carboxamide]	> 10	> 10
1000 to 10000	1000 to 10000	1000 to 10000	CCNC1CCN(c2cc(F)c(C(=O)Nc3cc(F)c4nc(C)cn4c3)s2)CC1 [Compound 142, 5-[4-(ethylamino)piperidin-1-yl]-3-fluoro-N-[8-fluoro-2-methylimidazo [1,2-a]pyridin-6-yl]thiophene-2-carboxamide]	1 to 10	1 to 10
100 to 1000	1000 to 10000	1000 to 10000	Cc1cn2cc(NC(=O)c3sc(C4CCN(C)CC4)cc3F)cc(F)c2n1 [Compound 145, 3-fluoro-N-[8-fluoro-2-methylimidazo [1,2-a]pyridin-6-yl]-5-(1-methylpiperidin-4-yl)thiophene-2-carboxamide]	1 to 10	1 to 10
100 to 1000	1000 to 10000	< 100	CCN1CCC(c2cc(F)c(C(=O)Nc3cc(F)c4nc(C)cn4c3)s2)CC1 [Compound 146, 5-(1-ethylpiperidin-4-yl)-3-fluoro-N-[8-fluoro-2-methylimidazo[1,2-a]pyridin-6-yl]thiophene-2-carboxamide]	1 to 10	1 to 10
< 100	100 to 1000	1000 to 10000	Cc1cn2cc(NC(=O)c3sc(C4C[C@@H](C)N[C@@H](C)C4)cc3F)cc(F)c2n1 (stereo partly drawn) [Compound 147, 5-[(2R,6S)-2,6-dimethylpiperidin-4-yl]-3-fluoro-N-[8-fluoro-2-methylimidazo[1,2-a]pyridin-6-yl]thiophene-2-carboxamide]	1 to 10	0.1 to 1
